Results as given in patent US6593342B1, “Pharmaceutical compositions comprising 2-quinolones” (Laboratoire L. Lafon, priority 1998, dated 2003).

Key:
[1] = tested on: A-427; test: MTT test, A-427; type: cell-based; settings: Homo sapiens, 10^−5 M, 72 hours, control = 100%, mean ± SEM, read-out: average optical density (MTT), percentage relative to control
Experimental: (§1) The influence of the compounds of formulae (I) and (Ia) on non-clonogenic cells was evaluated with the aid of the MTT calorimetric test.
(§2) The principle of the MTT test is based on the mitochondrial reduction, by the metabolically active live cells, of the yellow-colored product MTT (3-(4,5-dimethylthiazol-2-yl)-2,5-diphenyltetrazolium bromide) to a blue-colored product, formazan. The amount of formazan thus obtained is directly proportional to the amount of live cells present in the culture well(s). This amount of formazan is measured by spectrophotometry.
(§3) The cell lines are maintained as a monolayer culture at 37° C. in stoppered culture dishes containing MEM 25 MM HEPES (Minimum Essential Medium) base medium. This medium is suited to the growth of a range of various mammalian diploid or primary cells. This medium is then supplemented with:
(§4) an amount of 5% of FCS (Foetal Calf Serum) decomplemented at 56° C. for 1 hour,
(§5) 0.6 mg/ml of L-glutamine,
(§6) 200 μg/ml of streptomycin,
(§7) The 12 human cancer cell lines which were used were obtained from the American Type Culture Collection (ATCC, Rockville, Md., USA). These 12 cell lines are:
(§8) A549 (code ATCC: CCL-185) and A-427 (code ATCC: HTB-53) which are two non-small-cell lung cancers,
(§9) Experimentally: 100 μl of a cell suspension containing 20 000 to 50 000 (depending on the cell type used) cells/ml of culture medium are inoculated in 96-well flat-bottomed multi-well plates and are incubated at 37° C., under an atmosphere comprising 5% CO2 and 70% humidity. After incubation for 24 hours, the culture medium is replaced with 100 μl of fresh medium containing either the various test compounds at concentrations ranging from 10^−5 to 10^−10 M or the solvent used to dissolve the test products (control condition). After incubation for 72 hours under the above conditions, the culture medium is replaced with 100 μl of a yellowish solution of MTT dissolved at a rate of 1 mg/ml in RPMI 1640. The microplates are reincubated for 3 hours at 37° C. and are then centrifuged for 10 minutes at 400×g. The yellowish solution of MTT is removed and the blue formazan crystals formed in the cell are dissolved in 100 μl of DMSO. The microplates are then shaken for 5 minutes. The intensity of the resulting blue coloration, and thus of the conversion of the yellow product MTT into blue formazan by the cells that are still alive at the end of the experiment, is quantified by spectrophotometry using a Dynatech Immunoassay System machine at wavelengths of 570 nm and 630 nm corresponding, respectively, to the maximum absorption wavelengths of formazan and to the background noise. Software incorporated in the spectrophotometer calculates the average optical density values and the standard deviation (SD) and standard error of mean (SEM) values.
(§10) By way of example, the results of the average optical density, expressed as a percentage relative to the average optical density measured under the control condition (set equal to 100%), obtained at a concentration of 10^−5 M on the 12 abovementioned tumor cell lines are given in Table II.

[2] = tested on: A549; test: MTT test, A549; type: cell-based; settings: Homo sapiens, 10^−5 M, 72 hours, control = 100%, mean ± SEM, read-out: average optical density (MTT), percentage relative to control
Experimental: as §1, §2, §3, §4, §5, §6, §7, §8, §9, §10

[3] = tested on: HCT-15; test: MTT test, HCT-15; type: cell-based; settings: Homo sapiens, 10^−5 M, 72 hours, control = 100%, mean ± SEM, read-out: average optical density (MTT), percentage relative to control
Experimental: as §1, §2, §3, §4, §5, §6, §7
(§11) HTC-15 (code ATCC: CCL-225) and LoVo (code ATCC: CCL-229) which are two colorectal cancers,
as §9, §10

[4] = tested on: PC-3; test: MTT test, PC-3; type: cell-based; settings: Homo sapiens, 10^−5 M, 72 hours, control = 100%, mean ± SEM, read-out: average optical density (MTT), percentage relative to control
Experimental: as §1, §2, §3, §4, §5, §6, §7
PC-3 (code ATCC: CRL-1435) which is a prostate cancer.
as §9, §10

[5] = tested on: MCF7; test: MTT test, MCF7; type: cell-based; settings: Homo sapiens, 10^−5 M, 72 hours, control = 100%, mean ± SEM, read-out: average optical density (MTT), percentage relative to control
Experimental: as §1, §2, §3, §4, §5, §6, §7
(§12) T-47D (code ATCC: HTB-133) and MCF7 (code ATCC: HTB-22) which are two breast cancers,
as §9, §10

[6] = tested on: U-373MG; test: MTT test, U-373MG; type: cell-based; settings: Homo sapiens, U373 MG, 10^−5 M, 72 hours, control = 100%, mean ± SEM, read-out: average optical density (MTT), percentage relative to control
Experimental: as §1, §2, §3, §4, §5, §6, §7
(§13) U-373MG (code ATCC: HTB-17) and U-87MG (code ATCC: HTB-14) which are two glioblastomas,
as §9, §10

[7] = Determination of the maximum tolerated dose (MTD); settings: mouse, in vivo, ip; B6D2F1/Jico mice; single intraperitoneal administration, 2.5 to 160 mg/kg; survival over 14 days
Experimental: 3.—Determination of the Maximum Tolerated Dose (MTD):
The evaluation of the maximum tolerated dose was carried out on 4- to 6-week-old B6D2F1/Jico mice. The compounds were administered intraperitoneally at increasing doses graduating from 2.5 to 160 mg/kg. The value of the MTD (expressed in mg/kg) is determined from the observation of the survival rate of the animals over a 14-day period after a single administration of the product under consideration. The weight change of the animals is also monitored during this period. When the value of the MTD is greater than 160 mg/kg, the MTD value is likened to 160 mg/kg by default.
The results of the estimation of the maximum tolerated dose (MTD) are collated in the following table: […]

[8] = tested on: LoVo; test: MTT test, LoVo; type: cell-based; settings: Homo sapiens, 10^−5 M, 72 hours, control = 100%, mean ± SEM, read-out: average optical density (MTT), percentage relative to control
Experimental: as §1, §2, §3, §4, §5, §6, §7, §11, §9, §10

[9] = tested on: SW1088; test: MTT test, SW1088; type: cell-based; settings: Homo sapiens, 10^−5 M, 72 hours, control = 100%, mean ± SEM, read-out: average optical density (MTT), percentage relative to control
Experimental: as §1, §2, §3, §4, §5, §6, §7
SW1088 (code ATCC: HTB-12) which is an astrocytoma,
as §9, §10

[10] = tested on: T24; test: MTT test, T24; type: cell-based; settings: Homo sapiens, T-24, 10^−5 M, 72 hours, control = 100%, mean ± SEM, read-out: average optical density (MTT), percentage relative to control
Experimental: as §1, §2, §3, §4, §5, §6, §7
(§14) J82 (code ATCC: HTB-1) and T24 (code ATCC: HTB-4) which are two bladder cancers,
as §9, §10

[11] = tested on: J82; test: MTT test, J82; type: cell-based; settings: Homo sapiens, 10^−5 M, 72 hours, control = 100%, mean ± SEM, read-out: average optical density (MTT), percentage relative to control
Experimental: as §1, §2, §3, §4, §5, §6, §7, §14, §9, §10

[12] = tested on: T-47D; test: MTT test, T-47D; type: cell-based; settings: Homo sapiens, T47D, 10^−5 M, 72 hours, control = 100%, mean ± SEM, read-out: average optical density (MTT), percentage relative to control
Experimental: as §1, §2, §3, §4, §5, §6, §7, §12, §9, §10

[13] = tested on: U-87MG; test: MTT test, U-87MG; type: cell-based; settings: Homo sapiens, 10^−5 M, 72 hours, control = 100%, mean ± SEM, read-out: average optical density (MTT), percentage relative to control
Experimental: as §1, §2, §3, §4, §5, §6, §7, §13, §9, §10

Row | Structure (SMILES) | viability at 10 µM [1] [%] | viability at 10 µM [2] [%] | viability at 10 µM [3] [%] | viability at 10 µM [4] [%] | viability at 10 µM [5] [%] | viability at 10 µM [6] [%] | MTD at 14 day [7] [mg/kg] | viability at 10 µM [8] [%] | viability at 10 µM [9] [%] | viability at 10 µM [10] [%] | viability at 10 µM [11] [%] | viability at 10 µM [12] [%] | viability at 10 µM [13] [%]
1 | COc1ccc(-c2cc3c(OC)cc(OC)cc3nc2S)cc1 [CRL8271, 5,7-Dimethoxy-3-(4-methoxhphenyl)-1,2-dihydro-2-quinolinethione] | 84.1 ± 1.9 | 94.2 ± 4.7 | 87.2 ± 2.8 | 107 ± 2.7 | 106 ± 2.3 | 96.2 ± 1.6 | > 160 | 94.2 ± 2.8 | 102.2 ± 0.5 | 107 ± 2.3 | 75.9 ± 1.3 | 90.9 ± 1.7 | 78.5 ± 1.7
2 | COc1ccc(-c2cc3c(OC)cc(OC)cc3n(CCC(=O)O)c2=O)cc1 [CRL8319, 3-[5,7-Dimethoxy-3-(4-methoxyphenyl)-2-oxo-1,2-dihydro-1-quinolinyl]propanoic Acid] | 79.1 ± 2.5 | 97.3 ± 1.2 | 96.7 ± 1.6 | 90.7 ± 3.6 | 102 ± 2 | 102 ± 1.5 | > 160 | 79.7 ± 2.7 | 89.8 ± 2.7 | 89.6 ± 2.1 | 80.9 ± 1 | 104 ± 2.5 | 115 ± 2.9
3 | Oc1ccc(-c2cc3c(O)cc(O)cc3nc2O)cc1 [CRL8311, 5,7-Dihydroxy-3-(4-hydroxyphenyl)-1,2-dihydro-2-quinolinone] | 89.7 ± 2 | 106 ± 2.4 | 101 ± 3.6 | 122 ± 3.5 | 98.8 ± 2.3 | 113 ± 2.5 | > 160 | 77.9 ± 1.7 | 80.7 ± 1.7 | 90 ± 1.9 | 127 ± 1.9 | 108 ± 6.6 | 91.8 ± 1.3
4 | COc1ccc(-c2cc3c(OC)cc(OC)cc3n(C)c2=O)cc1 [CRL8244, 5,7-Dimethoxy-3-(4-methoxyphenyl)-1-methyl-1,2-dihydro-2-quinolinone] | 93.6 ± 2.3 | 98 ± 0.9 | 76.8 ± 3 | 83.2 ± 3.6 | 75.9 ± 3.8 | 69 ± 0.9 | > 160 | 78.2 ± 1.8 | 81.3 ± 1.1 | 88.7 ± 2.9 | 88.5 ± 2.1 | 105 ± 3 | 97 ± 1
5 | COc1ccc(-c2cc3c(OC)cc(OC)cc3n(C)/c2=N\Nc2ccccn2)cc1 [CRL8266, 5,7-Dimethoxy-3-(4-methoxyphenyl)-1-methyl-1,2-dihydro-2-quinolinone-2-(2-pyridyl)hydrazone] | 45.2 ± 2.2 | 61.6 ± 3.5 | 76.1 ± 1.5 | 67.2 ± 0.9 | 46.3 ± 2.6 | 66.3 ± 1.6 | > 160 | 71.3 ± 4.5 | 68.4 ± 1.6 | 84.6 ± 3 | 31.2 ± 0.7 | 25 ± 4 | 64.4 ± 1.2
6 | COc1ccc(-c2cc3c(OC)cc(OC)cc3n(C)/c2=N\Nc2ccccc2)cc1 [CRL8270, 5,7-Dimethoxy-3-(4-methoxyphenyl)-1-methyl-1,2-dihydro-2-quinolinone-2-phenylhydrazone] | 30.8 ± 2.1 | 52.2 ± 2.4 | 58.8 ± 1.8 | 49.4 ± 1.1 | 51.5 ± 2.4 | 52.2 ± 3.2 | > 160 | 80 ± 3.2 | 50.7 ± 1.8 | 51.1 ± 3.8 | 42.5 ± 0.8 | 22.9 ± 4.3 | 75.6 ± 0.9
7 | COc1ccc(-c2cc3c(OC)cc(OC)cc3n(CCCN(C)C)c2=O)cc1 [CRL8254, 1-[3-(Dimethylamino)propyl]-5,7-dimethoxy-3-(4-methoxyphenyl)-1,2-dihydro-2-quinolinone] | 20.2 ± 2.3 | 96.9 ± 1.5 | 94.4 ± 3.5 | 97.9 ± 1.2 | 81.9 ± 0.6 | 7.6 ± 1.3 | > 160 | 91.8 ± 2.7 | 128 ± 2.2 | 103 ± 2.9 | 87.8 ± 1 | 55.2 ± 4.1 | 105 ± 3.6
8 | COC(=O)CCn1c(=O)c(-c2ccc(OC)cc2)cc2c(OC)cc(OC)cc21 [CRL8318] | 74 ± 3 | 86.6 ± 2.5 | 113 ± 1.7 | 79.2 ± 2.8 | 105 ± 2.4 | 89.9 ± 1.3 | > 160 | 75.2 ± 2.3 | 75.2 ± 3 | 81.8 ± 1.4 | 72.8 ± 1.2 | 100 ± 3.9 | 78.1 ± 2.4
9 | COc1ccc(-c2cc3c(OC)cc(OC)c4c3n(c2=O)CCC4=O)cc1 [CRL8285, 8,10-Dimethoxy-6-(4-methoxyphenyl)-2,3-dihydro-1H,5H-pyrido[3,2,1-ij]quinoline-1,5-dione] | 78.4 ± 1.6 | 92.5 ± 3.5 | 90.6 ± 1.6 | 93.4 ± 1.8 | 83.7 ± 2.3 | 96.9 ± 1.6 | > 160 | 103 ± 3.1 | 89.8 ± 2.7 | 72.7 ± 1.8 | 68.7 ± 2.9 | 89.3 ± 1.7 | 85.1 ± 2
10 | CCOC(=O)Cn1c(=O)c(-c2ccc(OC)cc2)cc2c(OC)cc(OC)cc21 [CRL8314] | 104 ± 3.1 | 85.2 ± 1.4 | 116 ± 4.4 | 88.6 ± 1.4 | 72.2 ± 2 | 89.2 ± 2 | > 160 | 82.9 ± 2.5 | 85.4 ± 2.5 | 61.9 ± 2.5 | 33.2 ± 1.2 | 114 ± 2.3 | 74.5 ± 3.4
